This is an account of results in publication PMC8950244, “New Alpha-Amylase Inhibitory Metabolites from Pericarps of Garcinia mangostana” (Life, 2022).

In the experiment the target is T1, porcine pancreatic α-amylase (Sus scrofa, UniProt P00690).
T1 construct: gene AMY2
T1 sequence (P00690 16-511): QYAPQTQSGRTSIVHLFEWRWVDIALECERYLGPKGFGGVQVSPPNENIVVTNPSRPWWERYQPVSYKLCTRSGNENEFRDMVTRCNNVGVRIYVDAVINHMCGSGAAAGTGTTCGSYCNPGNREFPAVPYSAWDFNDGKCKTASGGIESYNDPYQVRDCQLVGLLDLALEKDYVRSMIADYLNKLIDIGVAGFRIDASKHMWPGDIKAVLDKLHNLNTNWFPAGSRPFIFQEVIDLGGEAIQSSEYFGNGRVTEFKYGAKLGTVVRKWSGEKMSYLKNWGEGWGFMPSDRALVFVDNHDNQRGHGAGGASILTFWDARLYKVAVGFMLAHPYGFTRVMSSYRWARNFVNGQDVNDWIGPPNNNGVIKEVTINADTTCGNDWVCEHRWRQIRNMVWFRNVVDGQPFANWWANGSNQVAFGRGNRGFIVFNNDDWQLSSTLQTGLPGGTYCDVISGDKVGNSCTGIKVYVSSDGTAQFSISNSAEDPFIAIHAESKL
Description: fluorescence DQ starch hydrolysis assay (EnzChek Ultra Amylase kit). Type of experiment: biochemical.
`CC(C)=CCc1c(O)cc2oc3c(/C=C\C(C)(C)O)c(O)c(O)c(CC=C(C)C)c3c(=O)c2c1O` [compound 5, mangostanaxanthone VI] gave an IC50 of 16.1 µM.

As for `O=C(c1cc(O)cc(O)c1O)c1c(O)cc(O)cc1O` [compound 6, garcimangophenone A], the IC50 is 12.2 µM.

Consider `O=C(c1cc(O)ccc1O)c1c(O)cc(O)cc1O[C@@H]1O[C@H](CO)[C@@H](O)[C@H](O)[C@H]1O` [compound 7, garcimangophenone B], for which it took 9.3 µM to reach half-maximal inhibition (IC50).

By IC50 is commonly meant the concentration that inhibits the measured activity by half. A high value points to lower potency.
